From patent US20240327364A1, “THERAPEUTIC TARGETING OF GPR68 TO INDUCE FERROPTOSIS” (University Of Maryland, Baltimore, priority 2023, published 2024) come the findings set out here.

Experiment [1] concerns the target T1, ACVR1B (Homo sapiens, UniProt P36896).
T1 construct: purchased DiscoveRx
Description: KinomeScan. Particulars: read-out: % Control. In kind it is binding.

Experiment [2] addresses T2, BLK (Homo sapiens, UniProt P51451).
T2 construct: purchased DiscoveRx (Fremont, CA)
Description: KinomeScan. In kind it is binding. As to conditions: read-out: % Control.

Experiment [3] deals with CLK1 (Homo sapiens, UniProt P49759). Description: KinomeScan. Particulars: read-out: % Control. In kind it is binding.
The target in experiment [4] is T3, DCAMKL2 (Homo sapiens, UniProt Q8N568).
T3 construct: purchased DiscoveRx (Fremont, CA), KinomeScan service
Put plainly: KinomeScan. The format is binding. As to conditions: read-out: % Control.

For experiment [5], the target named is T4, ERBB4 (Homo sapiens, UniProt Q15303).
T4 construct: purchased DiscoveRx (Fremont, CA)
Put plainly: KinomeScan. The format is binding. Particulars: read-out: % Control.

Experiment [6] concerns the target T5, ERK8 (Homo sapiens, UniProt Q8TD08).
T5 construct: purchased DiscoveRx (Fremont, CA)
Put plainly: KinomeScan. The format is binding. As to conditions: read-out: % Control.

The target in experiment [7] is T6, FLT3(K663Q) (Homo sapiens, UniProt P36888, K663Q).
T6 construct: purchased DiscoveRx (Fremont, CA)
Put plainly: KinomeScan. The format is binding. As to conditions: read-out: % Control.

For experiment [8], the target named is T7, HCK (Homo sapiens, UniProt P08631).
T7 construct: purchased DiscoveRx (Fremont, CA)
Put plainly: KinomeScan. In kind it is binding. Particulars: read-out: % Control.

The target in experiment [9] is T8, MKNK1 (Homo sapiens, UniProt Q9BUB5).
T8 construct: purchased DiscoveRx
Put plainly: KinomeScan. In kind it is binding. Particulars: read-out: % Control.

Experiment [10] addresses T9, PRKX (Homo sapiens, UniProt P51817).
T9 construct: purchased DiscoveRx (Fremont, CA)
Put plainly: KinomeScan. In kind it is binding. As to conditions: read-out: % Control.

Experiment [11] has as its target T10, RET (Homo sapiens, UniProt P07949).
T10 construct: purchased DiscoveRx (Fremont, CA)
Put plainly: KinomeScan. Particulars: read-out: % Control. In kind it is binding.

Experiment [12] concerns the target T11, RET(V804L) (Homo sapiens, UniProt P07949, V804L).
T11 construct: purchased DiscoveRx (Fremont, CA)
Put plainly: KinomeScan. In kind it is binding. Particulars: read-out: % Control.

The target in experiment [13] is T12, RIPK5 (Homo sapiens, UniProt Q6XUX3).
T12 construct: purchased DiscoveRx (Fremont, CA)
Put plainly: KinomeScan. The format is binding. As to conditions: read-out: % Control.

For experiment [14], the target named is T13, S6K1 (Homo sapiens, UniProt P23443).
T13 construct: purchased DiscoveRx (Fremont, CA)
Put plainly: KinomeScan. Particulars: read-out: % Control. The format is binding.

The target in experiment [15] is T14, TYK2(JH1domain-catalytic) (Homo sapiens, UniProt P29597).
T14 construct: TYK2(JH1domain-catalytic); purchased DiscoveRx
Put plainly: KinomeScan. The format is binding. As to conditions: read-out: % Control.

For experiment [16], the target named is T15, GPR54 (Homo sapiens, UniProt Q969F8).
T15 construct: host or cells: Chem-1 cells with promiscuous Gα15
Put plainly: GPCR Profiler. The format is cell-based.

Experiment [17] addresses T16, H1 (Homo sapiens, UniProt P35367).
T16 construct: host or cells: Chem-1 cells with promiscuous Gα15
Put plainly: GPCR Profiler. In kind it is cell-based.

The target of experiment [18] is T17, M4 (Homo sapiens, UniProt P08173).
T17 construct: host or cells: Chem-1 cells with promiscuous Gα15
Put plainly: GPCR Profiler. The format is cell-based.

Experiment [19] concerns the target T18, P2Y1 (Homo sapiens, UniProt P47900).
T18 construct: host or cells: Chem-1 cells expressing Gα15
Put plainly: GPCR Profiler. In kind it is cell-based.

The subject of experiment [20] is WM-115. Description: Cell Titer-Glo viability, Melanoma. The format is cell-based. The method, then:
OGM2 kills wide variety of cancer cell types. Cell sensitivity can be classified in to Very Sensitive (LC50<2 μM), Sensitive (LC50=2 to 10 μM), Mildly Sensitive (LC50>10 μM), and Refractory (no killing at 10 μM). The listed established cell were incubated with OGM2 at 2 μM or 10 μM for 72 hours under standard cell culture conditions, and relative cell number was assessed using Cell Titer-Glo Luminescent Cell Viability Assay (Promega™) following the manufacturer's instructions. Luminescence was determined using a Cytation 5 reader and Gen5 software package (BioTek™).
Cancer cells, which are very sensitive to killing by OGM2 (LCs <2 μM), with reported mRNA expression of GPR68 and the related proton sensing receptor GPR4. LC50's (concentrations causing 50% lethality) were determined using CellTiter-Glo (Promega™, G7570). Cells were plated in 12-well plates (CELLTREAT Scientific Products, 229112) in 1 ml of DMEM with high glucose, GlutaMAX, HEPES, or RPMI 1640 with Penicillin-Streptomycin (ThermoFisher™, 10564029, 11875119 and 15140122) and 10% FBS. Cells were incubated overnight at 37° C. in 5% CO2. Then 1 mL of fresh media was added with DMSO, OGM, or positive control (Erastin; APExBIO Technology, LLC, B1524) and cells incubated for 3 days. On the third day, all media was removed, cells were rinsed with 1×PBS, PBS was removed, and 200 μL of 1× Passive Lysis Buffer (Promega™, E1941) was added to each well. […]. Subsequently, 20 μL of lysate was added to 100 μL CellTiter-Glo™ reagent on a LUMITRAC 200 plate (Greiner™ bio-one, 82050-726). Plates were briefly spun down and read on a GloMax-Multi Detection System (Promega™).
The cells listed in the tables above were incubated with OGM2 at 2 μM or 10 μM for 72 hours under standard cell culture conditions, and relative cell number was assessed using Cell Titer-Glo Luminescent Cell Viability Assay (Promega™) following the manufacturer's instructions. Luminescence was determined using a Cytation 5 reader and Gen5 software package (BioTek™). RNA expression of GPR68 and GPR4 in the corresponding cancer cell lines are listed, according to the publicly available The Human Protein Atlas version 22.0 and Ensembl version 103.38 (see proteinatlas.org). The consensus normalized expression value (“nTPM”=normalize transcript per million) was calculated as the maximum nTPM value for each gene in the two data sources.

The test system of experiment [21] is ALI induced by HTV, LPS and both. Put plainly: HTV mechanical ventilation / LPS acute lung injury. The format is in vivo, C57Bl mice. The text has this:
FIG. 38A through FIG. 38D: High-tidal volume (HTV) mechanical ventilation causes ALI and exacerbates ALI caused by LPS (“two-hit”) in C57Bl mice, and OGM2 attenuates these effects. […] Lungs from mice treated with OGM2 are marked with “+”. […] Here, OGM and OGM8345=OGM2.

T18 sequence (P47900 whole entry, species assumed): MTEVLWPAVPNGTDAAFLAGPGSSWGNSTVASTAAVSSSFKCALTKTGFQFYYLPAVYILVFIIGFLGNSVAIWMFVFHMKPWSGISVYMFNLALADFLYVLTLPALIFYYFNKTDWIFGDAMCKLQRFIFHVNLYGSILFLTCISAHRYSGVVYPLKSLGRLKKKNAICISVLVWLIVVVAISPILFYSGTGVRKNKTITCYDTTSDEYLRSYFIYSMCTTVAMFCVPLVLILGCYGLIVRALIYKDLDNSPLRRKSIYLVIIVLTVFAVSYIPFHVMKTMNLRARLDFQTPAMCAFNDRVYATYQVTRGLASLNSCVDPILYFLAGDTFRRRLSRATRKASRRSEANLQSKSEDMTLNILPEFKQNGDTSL
T17 sequence (P08173 whole entry): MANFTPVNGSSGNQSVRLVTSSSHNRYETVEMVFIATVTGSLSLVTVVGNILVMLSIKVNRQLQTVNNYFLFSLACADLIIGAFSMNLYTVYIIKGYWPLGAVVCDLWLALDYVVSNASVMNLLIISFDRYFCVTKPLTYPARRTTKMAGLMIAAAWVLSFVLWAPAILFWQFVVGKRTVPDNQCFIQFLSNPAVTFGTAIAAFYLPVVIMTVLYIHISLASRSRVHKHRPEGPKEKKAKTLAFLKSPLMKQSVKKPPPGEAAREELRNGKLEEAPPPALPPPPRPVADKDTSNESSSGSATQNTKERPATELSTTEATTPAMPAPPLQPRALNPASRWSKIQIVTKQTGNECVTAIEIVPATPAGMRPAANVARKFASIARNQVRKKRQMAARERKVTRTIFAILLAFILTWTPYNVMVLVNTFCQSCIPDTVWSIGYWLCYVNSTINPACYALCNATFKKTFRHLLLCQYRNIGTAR
T16 sequence (P35367 whole entry): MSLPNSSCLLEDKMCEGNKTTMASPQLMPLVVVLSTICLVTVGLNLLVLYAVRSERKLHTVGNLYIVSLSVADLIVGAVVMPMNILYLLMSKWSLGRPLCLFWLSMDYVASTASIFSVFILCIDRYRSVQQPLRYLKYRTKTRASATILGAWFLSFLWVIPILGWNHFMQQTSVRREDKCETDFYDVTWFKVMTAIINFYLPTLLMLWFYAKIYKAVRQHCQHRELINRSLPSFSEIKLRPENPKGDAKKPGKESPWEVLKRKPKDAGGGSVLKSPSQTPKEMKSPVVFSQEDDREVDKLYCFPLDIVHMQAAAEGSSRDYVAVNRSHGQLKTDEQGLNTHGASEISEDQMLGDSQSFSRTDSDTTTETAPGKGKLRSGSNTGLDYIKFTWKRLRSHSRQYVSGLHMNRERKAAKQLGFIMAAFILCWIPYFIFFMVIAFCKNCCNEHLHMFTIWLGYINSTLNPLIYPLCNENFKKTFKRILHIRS
T15 sequence (Q969F8 whole entry, species assumed): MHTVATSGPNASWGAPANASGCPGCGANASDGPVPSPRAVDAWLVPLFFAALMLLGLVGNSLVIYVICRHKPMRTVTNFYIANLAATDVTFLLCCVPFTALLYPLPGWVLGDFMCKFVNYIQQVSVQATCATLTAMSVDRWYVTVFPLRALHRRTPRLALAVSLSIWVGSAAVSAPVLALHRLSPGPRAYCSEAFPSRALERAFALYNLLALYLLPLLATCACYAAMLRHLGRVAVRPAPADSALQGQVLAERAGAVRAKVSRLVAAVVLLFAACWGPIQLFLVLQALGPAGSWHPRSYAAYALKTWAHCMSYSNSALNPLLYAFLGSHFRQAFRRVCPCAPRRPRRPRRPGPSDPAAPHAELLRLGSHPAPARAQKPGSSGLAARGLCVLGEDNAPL
T14 sequence (P29597 897-1176 limits assumed): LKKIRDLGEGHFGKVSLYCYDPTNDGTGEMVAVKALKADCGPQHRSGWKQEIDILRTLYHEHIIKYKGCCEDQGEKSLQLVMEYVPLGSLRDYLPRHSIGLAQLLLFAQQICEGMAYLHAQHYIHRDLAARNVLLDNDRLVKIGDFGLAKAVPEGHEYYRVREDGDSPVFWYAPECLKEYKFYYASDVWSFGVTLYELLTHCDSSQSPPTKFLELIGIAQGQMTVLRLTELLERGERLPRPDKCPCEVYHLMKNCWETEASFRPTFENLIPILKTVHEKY
T4 sequence (Q15303 26-1308): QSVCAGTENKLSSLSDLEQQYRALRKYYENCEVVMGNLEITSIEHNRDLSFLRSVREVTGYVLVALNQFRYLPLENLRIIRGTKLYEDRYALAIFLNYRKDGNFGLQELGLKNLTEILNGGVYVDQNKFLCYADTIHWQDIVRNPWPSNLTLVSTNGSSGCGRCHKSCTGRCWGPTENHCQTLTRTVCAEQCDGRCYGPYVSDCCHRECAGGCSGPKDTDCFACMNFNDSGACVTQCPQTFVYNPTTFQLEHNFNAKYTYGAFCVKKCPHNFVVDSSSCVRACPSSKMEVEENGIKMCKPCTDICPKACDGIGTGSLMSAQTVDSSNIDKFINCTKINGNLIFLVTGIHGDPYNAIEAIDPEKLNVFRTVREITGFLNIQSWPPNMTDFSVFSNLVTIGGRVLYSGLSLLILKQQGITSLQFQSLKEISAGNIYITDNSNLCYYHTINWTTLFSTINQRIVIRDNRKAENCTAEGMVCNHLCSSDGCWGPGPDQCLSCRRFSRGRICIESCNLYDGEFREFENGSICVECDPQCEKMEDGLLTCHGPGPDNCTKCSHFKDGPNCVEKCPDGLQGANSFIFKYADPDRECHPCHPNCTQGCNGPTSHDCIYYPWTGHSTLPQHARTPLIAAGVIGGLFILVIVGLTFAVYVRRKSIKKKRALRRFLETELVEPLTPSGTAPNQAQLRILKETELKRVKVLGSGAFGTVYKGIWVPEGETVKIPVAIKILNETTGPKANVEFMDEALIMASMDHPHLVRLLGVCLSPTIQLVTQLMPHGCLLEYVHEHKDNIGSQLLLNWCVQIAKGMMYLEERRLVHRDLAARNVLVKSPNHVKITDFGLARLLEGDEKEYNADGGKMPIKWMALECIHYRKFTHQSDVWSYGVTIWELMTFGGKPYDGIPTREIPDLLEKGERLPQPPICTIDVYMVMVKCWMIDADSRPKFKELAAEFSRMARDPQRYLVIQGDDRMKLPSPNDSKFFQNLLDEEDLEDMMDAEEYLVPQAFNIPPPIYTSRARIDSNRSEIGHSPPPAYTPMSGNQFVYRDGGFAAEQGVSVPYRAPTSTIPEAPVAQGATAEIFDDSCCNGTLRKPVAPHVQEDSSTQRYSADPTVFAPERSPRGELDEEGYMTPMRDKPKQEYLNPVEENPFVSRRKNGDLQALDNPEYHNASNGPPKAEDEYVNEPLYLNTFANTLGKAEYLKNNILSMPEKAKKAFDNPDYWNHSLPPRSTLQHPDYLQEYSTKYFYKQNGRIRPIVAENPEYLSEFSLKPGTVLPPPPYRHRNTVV
T7 sequence (P08631 whole entry): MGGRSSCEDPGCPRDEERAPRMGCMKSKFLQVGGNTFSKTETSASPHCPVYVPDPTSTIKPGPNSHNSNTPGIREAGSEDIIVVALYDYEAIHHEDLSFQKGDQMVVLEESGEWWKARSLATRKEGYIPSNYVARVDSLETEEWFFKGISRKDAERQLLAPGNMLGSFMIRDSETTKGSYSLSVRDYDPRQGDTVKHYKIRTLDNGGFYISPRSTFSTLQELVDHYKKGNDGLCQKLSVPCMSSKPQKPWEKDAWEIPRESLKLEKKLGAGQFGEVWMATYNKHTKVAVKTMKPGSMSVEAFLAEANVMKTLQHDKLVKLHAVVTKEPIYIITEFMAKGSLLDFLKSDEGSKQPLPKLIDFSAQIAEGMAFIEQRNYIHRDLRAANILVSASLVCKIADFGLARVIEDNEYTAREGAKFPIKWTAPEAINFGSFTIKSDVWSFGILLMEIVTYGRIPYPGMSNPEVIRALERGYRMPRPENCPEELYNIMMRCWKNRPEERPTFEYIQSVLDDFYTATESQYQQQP
T10 sequence (P07949 29-1114): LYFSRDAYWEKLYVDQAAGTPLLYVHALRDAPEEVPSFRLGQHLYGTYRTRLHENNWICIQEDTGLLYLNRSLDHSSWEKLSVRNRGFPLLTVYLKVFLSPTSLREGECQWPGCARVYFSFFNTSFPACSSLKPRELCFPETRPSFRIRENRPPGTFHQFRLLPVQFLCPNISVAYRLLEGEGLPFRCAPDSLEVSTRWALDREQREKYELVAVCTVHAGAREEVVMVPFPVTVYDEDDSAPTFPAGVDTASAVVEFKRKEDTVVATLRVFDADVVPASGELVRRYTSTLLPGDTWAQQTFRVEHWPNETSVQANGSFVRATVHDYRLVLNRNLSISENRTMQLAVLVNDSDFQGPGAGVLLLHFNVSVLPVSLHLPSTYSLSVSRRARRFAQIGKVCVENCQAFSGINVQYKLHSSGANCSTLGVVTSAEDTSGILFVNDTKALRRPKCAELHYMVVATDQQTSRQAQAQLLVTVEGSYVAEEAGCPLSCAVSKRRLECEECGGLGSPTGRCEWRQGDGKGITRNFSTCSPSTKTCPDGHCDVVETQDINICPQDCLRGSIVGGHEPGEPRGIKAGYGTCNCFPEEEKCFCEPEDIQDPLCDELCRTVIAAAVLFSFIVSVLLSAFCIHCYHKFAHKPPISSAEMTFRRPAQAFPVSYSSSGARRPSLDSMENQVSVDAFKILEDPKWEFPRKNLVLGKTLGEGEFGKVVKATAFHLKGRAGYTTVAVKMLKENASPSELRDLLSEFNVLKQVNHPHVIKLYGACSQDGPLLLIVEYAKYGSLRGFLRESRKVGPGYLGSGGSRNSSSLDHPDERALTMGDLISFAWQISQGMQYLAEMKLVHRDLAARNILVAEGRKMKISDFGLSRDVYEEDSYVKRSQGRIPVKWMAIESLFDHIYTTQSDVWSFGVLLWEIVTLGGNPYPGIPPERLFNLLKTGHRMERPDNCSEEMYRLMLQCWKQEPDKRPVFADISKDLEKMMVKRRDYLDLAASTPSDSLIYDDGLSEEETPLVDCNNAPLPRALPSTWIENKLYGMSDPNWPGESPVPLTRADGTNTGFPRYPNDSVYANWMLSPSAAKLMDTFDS
T11 sequence (P07949 29-1114 V804L): as the sequence (P07949 29-1114) above, with V776L counted along it

With `CCc1ccc2c(c1)C1(NN=C(c3cccc4ccccc34)S1)C(=O)N2` (stereo not shown) [OGM1, 5-ethyl-5′-naphthalen-1-ylspiro[1H-indole-3,2′-3H-1,3,4-thiadiazole]-2-one], the remaining binding at 10 µM came out at 100% in experiment [1]; 97% in experiment [2]; 100% in experiment [3]; 100% in experiment [4]; 100% in experiment [5]; 100% in experiment [6]. Also, the remaining binding at 10 µM in [7] was 100%; in experiment [8], 96%; in experiment [9], 90%; in experiment [10], 98%; in experiment [11] it was 100%; in experiment [12] it was 90%. Besides, the remaining binding at 10 µM is 56% in [13], 93% in experiment [14] and 77% in [15]. The Antagonism in experiment [16] (10 uM) is −5.8; in experiment [17] (10 uM), −17.2; in experiment [18] (10 uM) it was −2.8; in experiment [19] (10 uM), −6.3. In addition, the Agonism is given as −0.6 in experiment [16] (12.5 uM), 2.1 in [17] (12.5 uM), −0.6 in [18] (12.5 uM) and 1.7 in experiment [19] (12.5 uM).
As for `CCc1ccc2c(c1)C1(NN=C(c3ccccc3)S1)C(=O)N2` (stereo not shown) [OGM2], the Class result in [20] was “Sensitive (Sensitive (LC50=2 to 10 μM))”. For the same molecule, in experiment [20] (72 hours), the “% Survival 2 μM OGM” value was determined as 92.9% and the “% Survival 10 μM OGM” value worked out at 40.7%. Besides, the CC50 in experiment [20] (Homo sapiens, WM-115, 72 hours, read-out: LC50 (the source's name)) lay in the range of 2 to 10 µM. In addition, the “lung vascular leak (Evans blue)” value in [21] (OGM2 40 mg/kg ip 15 minutes before HTV) was “significantly attenuated lung vascular leak”. Further, in experiment [21] (mouse, in vivo), the BAL cell count result is recorded as “significantly attenuated the rise”, the BAL protein concentration result is “significantly attenuated the rise” and the “inflammatory cytokine mRNA expression” value is listed as “blunted the rise”.
